# According to US12054498B2, “Heteroaromatic macrocyclic ether chemotherapeutic agents” (Nuvalent, Inc., priority 2020, dated 2024):
# How the values were obtained:
# TRKA-wt = molecular target: T1, TRKA-wt (Homo sapiens, UniProt P04629); assay: Biochemical kinase assay, TRKA-wt kinase domain; details: apparent inhibitory constant, Morrison equation; ATP 2 mM in substrate solution; read-out: TRKA-wt Ki^app
# T1 construct: or TRKA-wt (1 nM, BPS Bio, 40280) kinase domains in buffer; purchased BPS Bio 40280
# T1 sequence (P04629 510-781 limits assumed): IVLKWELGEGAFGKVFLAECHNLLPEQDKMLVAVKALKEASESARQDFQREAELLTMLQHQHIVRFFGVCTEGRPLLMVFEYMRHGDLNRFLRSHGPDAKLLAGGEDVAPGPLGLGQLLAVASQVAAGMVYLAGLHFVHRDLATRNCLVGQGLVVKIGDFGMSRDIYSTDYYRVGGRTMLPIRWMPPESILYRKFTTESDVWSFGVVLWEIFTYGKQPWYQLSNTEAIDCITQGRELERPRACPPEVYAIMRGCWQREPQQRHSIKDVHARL
# Protocol: (§1) First, 250 nL of compound dissolved in DMSO (100-fold of the desired concentration) was dispensed into a 384-well plate. A 12.5 μL substrate solution containing ATP (2 mM) and fluorogenic phosphorylation substrate AQT0101 (26 μM for ALK and ROS1, AssayQuant) or AQT0104 (26 μM for TRKA, AssayQuant) in buffer (50 mM HEPES pH 7.5, 0.01% Brij-35, 0.5 mM EGTA, 10 mM MgCl2) was added and mixed thoroughly. Then, a 12.5 μL kinase solution containing ALK-wt (1.5 nM, Carna, 08-518), ALK ALK L1196M/G1202R (3 nM, SignalChem, A19-12NG), ROS1-wt (0.6 nM, Carna, 08-163), ROS1-G2032R (0.5 nM, SignalChem, R14-12BG), or TRKA-wt (1 nM, BPS Bio, 40280) kinase domains in buffer (50 nM HEPES pH 7.5, 0.01% Brij-35, 2% glycerol, 0.4 mg/mL BSA, 0.5 mM EGTA, and 10 mM MgCl2) was added and mixed thoroughly. The plate was sealed and read by SpectraMax Paradigm at λ=485 nm every 2 minutes for 120 minutes at 30° C. Initial rates of reaction (v) were calculated from the change in fluorescence intensity over time during the initial, linear portion of the reaction. Finally, apparent inhibitory constants (Ki^app) were determined from regression of v and I (inhibitor concentration) to Morrison Equation (E=enzyme concentration): […]
# [1] = molecular target: T2, Ba/F3 cells EML4-ALK wt (variant 1) (Homo sapiens, UniProt Q9UM73); assay: Ba/F3 cell proliferation assay, EML4-ALK wt (variant 1); type: cell-based; details: 72 hours, CellTiter-Glo
# T2 construct: echinoderm microtubule-associated protein-like 4 (EML4) gene and the ALK tyrosine kinase domain; host or cells: Ba/F3 (RIKEN), retroviral pMSCV-puro; the other entry of the earlier key: EML4 (Q9HC35, Echinoderm microtubule-associated protein-like 4)
# T2 sequence (Q9UM73 with tags, fused parts or gaps): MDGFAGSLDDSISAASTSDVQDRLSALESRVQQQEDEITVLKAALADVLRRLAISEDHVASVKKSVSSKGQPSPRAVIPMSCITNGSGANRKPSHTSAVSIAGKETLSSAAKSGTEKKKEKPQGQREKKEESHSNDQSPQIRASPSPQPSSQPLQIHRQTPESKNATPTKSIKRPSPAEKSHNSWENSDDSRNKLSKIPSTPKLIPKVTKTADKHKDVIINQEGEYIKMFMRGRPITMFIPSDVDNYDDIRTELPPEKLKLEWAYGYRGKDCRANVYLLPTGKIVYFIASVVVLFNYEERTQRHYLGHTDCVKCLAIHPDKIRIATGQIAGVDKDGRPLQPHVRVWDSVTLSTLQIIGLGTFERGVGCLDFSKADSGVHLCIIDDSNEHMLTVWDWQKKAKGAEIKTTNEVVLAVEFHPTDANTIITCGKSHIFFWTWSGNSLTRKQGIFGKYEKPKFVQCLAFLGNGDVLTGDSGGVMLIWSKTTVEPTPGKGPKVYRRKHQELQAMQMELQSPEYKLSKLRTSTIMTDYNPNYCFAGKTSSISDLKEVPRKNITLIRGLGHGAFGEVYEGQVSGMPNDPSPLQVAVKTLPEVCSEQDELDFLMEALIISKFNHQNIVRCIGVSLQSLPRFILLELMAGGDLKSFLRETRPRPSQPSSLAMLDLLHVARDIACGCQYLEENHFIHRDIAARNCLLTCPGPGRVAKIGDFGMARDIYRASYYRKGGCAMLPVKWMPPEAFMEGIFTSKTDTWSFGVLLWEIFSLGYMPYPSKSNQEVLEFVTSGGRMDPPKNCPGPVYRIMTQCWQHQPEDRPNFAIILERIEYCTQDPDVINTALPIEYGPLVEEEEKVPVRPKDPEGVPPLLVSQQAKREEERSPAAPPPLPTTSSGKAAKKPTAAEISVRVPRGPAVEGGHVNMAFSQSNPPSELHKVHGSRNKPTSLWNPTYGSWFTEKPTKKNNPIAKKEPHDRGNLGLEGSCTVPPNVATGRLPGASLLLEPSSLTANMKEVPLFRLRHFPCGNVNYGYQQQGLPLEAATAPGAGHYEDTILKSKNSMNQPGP
# Description: (§2) Genes encoding CD74-ROS1 wild-type (wt), CD74-ROS1 G2032R, CD74-ROS1 S1986F, CD74-ROS1 L2026M, CD74-ROS1 D2033N, EML4-ALK wt (variant 1), EML4-ALK G1202R (variant 1), EML4-ALK L1196M/G1202R (variant 1), EML4-ALK G1202R/G1269A (variant 1), EML4-ALK G1202R/L1198F (variant 1), and TPM3-TRKA were synthesized at GeneRay, cloned into the retroviral construct pMSCV-puro (Biovector), and packaged into retroviral particles. The virus was used to infect Ba/F3 cells (RIKEN) at multiplicity of infection=1 for 1 day. Infected cells were rescued in media (RPMI-1640 with 10% fetal bovine serum and 1% streptomycin and penicillin) supplemented with mouse IL-3 (10 ng/mL) for 2 days, and stable cell lines were selected by IL-3 withdrawal and puromycin (0.8 μg/mL) for 7 days. Monoclones were selected by single-cell dilution in IL-3-free medium containing puromycin (0.8 μg/mL). Transformation of desired genes was confirmed by Sanger sequencing and western blot using the following antibodies: ROS1 (CST #3287), ALK (CST #3633), and pan-TRK (Abcam #76291).
# (§3) Cell Proliferation Assay Stable cells were plated at 1,000 cells/well (40 μL) in a 384-well plate for 1 day.
# (§4) Test compounds (40 nL) were then added in a 3-fold dilution series using the TECAN EVO200 liquid handler and incubated for 72 hours. Plates were equilibrated at room temperature for 15 minutes followed by addition of 40 μL CellTiter-Glo reagent (Promega).
# (§5) Luminescence was measured on a plate reader. Half-maximal inhibitory concentration (IC50) was calculated from percent inhibition and inhibitor concentration using four-parameter logistic regression. […] (nd=not determined).
# ALK-wt = molecular target: T3, ALK-wt (Homo sapiens, UniProt Q9UM73); assay: Biochemical kinase assay, ALK-wt kinase domain; details: apparent inhibitory constant, Morrison equation; ATP 2 mM in substrate solution; read-out: ALK-wt Ki^app
# T3 construct: purchased Carna 08-518
# T3 sequence (Q9UM73 1116-1392 limits assumed): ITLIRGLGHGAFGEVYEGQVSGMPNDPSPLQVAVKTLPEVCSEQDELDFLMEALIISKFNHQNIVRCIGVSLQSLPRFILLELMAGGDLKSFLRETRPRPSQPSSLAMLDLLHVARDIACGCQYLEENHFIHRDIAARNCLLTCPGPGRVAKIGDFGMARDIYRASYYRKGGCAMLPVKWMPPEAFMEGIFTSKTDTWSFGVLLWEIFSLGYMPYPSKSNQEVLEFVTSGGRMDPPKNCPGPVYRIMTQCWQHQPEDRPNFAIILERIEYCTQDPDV
# Protocol: as §1
# [2] = molecular target: T4, Ba/F3 cells EML4-ALK L1196M/G1202R (variant 1) (Homo sapiens, UniProt Q9UM73, G1202R/L1196M); assay: Ba/F3 cell proliferation assay, EML4-ALK L1196M/G1202R (variant 1); type: cell-based; details: 72 hours, CellTiter-Glo
# T4 construct: echinoderm microtubule-associated protein-like 4 (EML4) gene and the ALK tyrosine kinase domain; host or cells: Ba/F3 (RIKEN), retroviral pMSCV-puro; the other entry of the earlier key: EML4 (Q9HC35, Echinoderm microtubule-associated protein-like 4)
# T4 sequence (Q9UM73 with tags, fused parts or gaps L1196M/G1202R): as the sequence (Q9UM73 with tags, fused parts or gaps) above, with L635M, G641R counted along it
# Description: as §2, §3, §4, §5
# Ba/F3 cells TPM3-TRKA = molecular target: T5, Ba/F3 cells TPM3-TRKA (Homo sapiens, UniProt P04629); assay: Ba/F3 cell proliferation assay, TPM3-TRKA; type: cell-based; details: 72 hours, CellTiter-Glo, read-out: TPM3-NTRK1-wt IC50
# T5 construct: host or cells: Ba/F3 (RIKEN), retroviral pMSCV-puro; the other entry of the earlier key: TPM3 (P06753, Tropomyosin alpha-3 chain)
# T5 sequence (P04629 510-796 limits assumed): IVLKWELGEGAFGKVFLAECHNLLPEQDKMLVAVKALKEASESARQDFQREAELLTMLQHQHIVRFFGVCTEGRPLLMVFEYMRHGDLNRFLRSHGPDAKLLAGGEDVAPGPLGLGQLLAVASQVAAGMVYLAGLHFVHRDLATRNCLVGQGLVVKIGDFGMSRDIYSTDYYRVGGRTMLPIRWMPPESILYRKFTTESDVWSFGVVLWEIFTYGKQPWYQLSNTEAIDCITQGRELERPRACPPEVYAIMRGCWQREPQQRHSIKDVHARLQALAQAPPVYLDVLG
# Description: as §2, §3, §4, §5
# ALK L1196M/G1202R = molecular target: T6, ALK L1196M/G1202R (Homo sapiens, UniProt Q9UM73, G1202R/L1196M); assay: Biochemical kinase assay, ALK L1196M/G1202R kinase domain; details: apparent inhibitory constant, Morrison equation; ATP 2 mM in substrate solution; read-out: ALK-L1196M-G1202R Ki^app
# T6 construct: purchased SignalChem A19-12NG
# T6 sequence (Q9UM73 1116-1392 L1196M/G1202R limits assumed): as the sequence (Q9UM73 1116-1392 limits assumed) above, with L81M, G87R counted along it
# Protocol: as §1
# [3] = tested on: TPM3-NTRK1-wt IC50 / primary target IC50 (e.g. CD74-ROS1-wt); assay: TRKA selectivity in Ba/F3 cells (TRKA potency divided by primary target potency); type: cell-based; details: for TPM3-NTRK1-wt/CD74-ROS1-G2032R selectivity ratio: TRKA potency / CD74-ROS1-G2032R potency; for TPM3-NTRK1-wt/CD74-ROS1-wt selectivity ratio: TRKA potency / CD74-ROS1-wt potency; for TPM3-NTRK1-wt/EML4-ALK-L1196M-G1202R selectivity ratio: TRKA potency / EML4-ALK-L1196M-G1202R potency; for TPM3-NTRK1-wt/EML4-ALK-wt selectivity ratio: TRKA potency / EML4-ALK-wt potency
# Protocol: TRKA selectivity was calculated by dividing a compound's TRKA potency by its primary target potency (e.g. TPM3-NTRK1-wt IC50/CD74-ROS1-wt IC50). Compound selectivity can be interpreted by binning ratio values: bin A for very high selectivity, ratio >30-fold; bin B for high selectivity, ratio >10-fold; bin C for moderate selectivity, ratio ≥1; and bin D for low selectivity, ratio <1. […] (nd=not determined).
# ROS1-G2032R = molecular target: T7, ROS1-G2032R (Homo sapiens, UniProt P08922, G2032R); assay: Biochemical kinase assay, ROS1-G2032R kinase domain; details: apparent inhibitory constant, Morrison equation; ATP 2 mM in substrate solution; read-out: ROS1-G2032R Ki^app
# T7 construct: purchased SignalChem R14-12BG
# T7 sequence (P08922 1945-2222 G2032R limits assumed): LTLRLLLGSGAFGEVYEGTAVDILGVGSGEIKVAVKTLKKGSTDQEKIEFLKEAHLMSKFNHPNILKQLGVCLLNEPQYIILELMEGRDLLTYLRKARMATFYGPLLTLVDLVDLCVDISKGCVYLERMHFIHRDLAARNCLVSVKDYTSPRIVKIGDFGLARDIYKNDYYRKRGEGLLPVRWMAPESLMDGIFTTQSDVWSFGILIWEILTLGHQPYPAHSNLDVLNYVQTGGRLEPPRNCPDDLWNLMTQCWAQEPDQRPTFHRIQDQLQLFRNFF
# Protocol: as §1, with “Then, a 12.5 μL kinase solution containing ALK-wt (1.5 nM, Carna, 08-518), ALK ALK L1196M/G1202R (3 nM, SignalChem, A19-12NG), ROS1-wt (0.6 nM, Carna, 08-163), ROS1-G2032R (0.5 nM, SignalChem, R14-12BG), or TRKA-wt (1 nM, BPS Bio, 40280) kinase domains in buffer (50 nM HEPES pH 7.5, 0.01% Brij-35, 2% glycerol, 0.4 mg/mL BSA, 0.5 mM EGTA, and 10 mM MgCl2) was added and mixed thoroughly.” left out
# [4] = molecular target: T8, Ba/F3 cells CD74-ROS1 G2032R (Homo sapiens, UniProt P08922, G2032R); assay: Ba/F3 cell proliferation assay, CD74-ROS1 G2032R; type: cell-based; details: 72 hours, CellTiter-Glo
# T8 construct: fusion of the C-terminus of ROS1 with the N-terminus of various partner proteins; host or cells: Ba/F3 (RIKEN), retroviral pMSCV-puro; the other entry of the earlier key: CD74 (P04233, HLA class II histocompatibility antigen gamma chain)
# T8 sequence (P08922 1883-2347 G2032R limits assumed): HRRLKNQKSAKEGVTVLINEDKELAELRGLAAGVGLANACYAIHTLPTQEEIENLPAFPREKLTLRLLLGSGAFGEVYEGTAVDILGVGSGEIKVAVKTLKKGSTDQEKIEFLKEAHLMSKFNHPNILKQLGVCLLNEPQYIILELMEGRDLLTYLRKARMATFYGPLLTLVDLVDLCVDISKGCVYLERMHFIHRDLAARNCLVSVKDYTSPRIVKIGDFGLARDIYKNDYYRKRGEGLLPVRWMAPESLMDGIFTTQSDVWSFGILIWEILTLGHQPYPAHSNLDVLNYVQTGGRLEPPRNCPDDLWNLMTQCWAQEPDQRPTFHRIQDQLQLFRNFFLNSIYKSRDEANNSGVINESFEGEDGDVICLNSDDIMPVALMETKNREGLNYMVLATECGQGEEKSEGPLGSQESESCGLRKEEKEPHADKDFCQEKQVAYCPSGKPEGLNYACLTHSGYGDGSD
# Protocol: (§6) The virus was used to infect Ba/F3 cells (RIKEN) at multiplicity of infection=1 for 1 day. Infected cells were rescued in media (RPMI-1640 with 10% fetal bovine serum and 1% streptomycin and penicillin) supplemented with mouse IL-3 (10 ng/mL) for 2 days, and stable cell lines were selected by IL-3 withdrawal and puromycin (0.8 μg/mL) for 7 days. Monoclones were selected by single-cell dilution in IL-3-free medium containing puromycin (0.8 μg/mL).
# as §3, §4, §5
# [5] = molecular target: T9, Ba/F3 cells CD74-ROS1 wild-type (wt) (Homo sapiens, UniProt P08922); assay: Ba/F3 cell proliferation assay, CD74-ROS1 wild-type; type: cell-based; details: 72 hours, CellTiter-Glo
# T9 construct: fusion of the C-terminus of ROS1 with the N-terminus of various partner proteins; host or cells: Ba/F3 (RIKEN), retroviral pMSCV-puro; the other entry of the earlier key: CD74 (P04233, HLA class II histocompatibility antigen gamma chain)
# T9 sequence (P08922 1883-2347 limits assumed): as the sequence (P08922 1883-2347 G2032R limits assumed) above, with R150G counted along it
# Protocol: as §6, §3, §4, §5
Ki (TRKA-wt) [µM],IC50 [1] [µM],Ki (ALK-wt) [µM],IC50 [2] [µM],IC50 (Ba/F3 cells TPM3-TRKA) [µM],Ki (ALK L1196M/G1202R) [µM],Ki (ROS1-G2032R) [µM],IC50 [4] [µM],IC50 [5] [µM],SMILES,TPM3-NTRK1-wt/CD74-ROS1-G2032R selectivity ratio [3],TPM3-NTRK1-wt/CD74-ROS1-wt selectivity ratio [3],TPM3-NTRK1-wt/EML4-ALK-L1196M-G1202R selectivity ratio [3],TPM3-NTRK1-wt/EML4-ALK-wt selectivity ratio [3]
0.05 to 0.5,0.0001 to 0.05,< 0.05,0.0001 to 0.05,0.05 to 0.5,< 0.05,–,–,–,"CCn1ncc2c1-c1cnc(N)c(c1)O[C@H](C)c1cc(F)ccc1-c1nn(C)nc1C2 [Example 5, (19R)-3-ethyl-16-fluoro-10,19-dimethyl-20-oxa-3,4,9,10,11,23-hexaazapentacyclo[19.3.1.0^2,^6.0^8,^12.0^13,^18]pentacosa-1(24),2(6),4.8,11,13,15,17,21(25),22-decaen-22-amine]",–,–,–,–
0.05 to 0.5,0.0001 to 0.05,< 0.05,0.05 to 0.5,0.05 to 0.5,< 0.05,< 0.05,0.0001 to 0.05,0.0001 to 0.05,"CCn1ncc2c1-c1cnc(N)c(c1)O[C@H](C)c1cc(F)ccc1-c1cc(OC)nn1C2 [Example 89, (19R)-3-ethyl-16-fluoro-10-methoxy-19-methyl-20-oxa-3,4,8,9,23-pentaazapentacyclo[19.3.1.0^2,^6.0^8,^12.0^13,^18]pentacosa 1(24),2(6),4,9,11,13,15,17,21(25),22-decaen-22-amine]","A (bin A for very high selectivity, ratio >30-fold)","A (bin A for very high selectivity, ratio >30-fold)","D (bin D for low selectivity, ratio <1)","B (bin B for high selectivity, ratio >10-fold)"
–,0.05 to 0.5,–,0.05 to 0.5,> 0.5,–,–,0.0001 to 0.05,0.0001 to 0.05,Cc1nc2c(o1)-c1ccc(F)cc1C(C)Oc1cc(cnc1N)-c1c(c(Cl)nn1CC1CC1)C2 (stereo not shown) [Example 93],"A (bin A for very high selectivity, ratio >30-fold)","A (bin A for very high selectivity, ratio >30-fold)","B (bin B for high selectivity, ratio >10-fold)","A (bin A for very high selectivity, ratio >30-fold)"
